Test results: patent US8889861B2, “Crystalline forms of a purine derivative” (Cyclacel Limited, priority 2010, dated 2014)
Values after ≈ are worked out from the molar mass of the structure shown. Values joined by “and” are separate entries in the source; they are usually repeats but may differ in a detail not shown here. Identical values can stand only once. “Also recorded” adds a separate entry of the source. Like-named read-outs stand apart in the source and are kept apart here. Blank lines part the entries; values can stand above or below the compound they belong to.

Legend:
[1] = Gravimetric vapour sorption (GVS) / hygroscopicity; assay type: physicochemical; details: for mass increase (GVS): 25° C., 40-90% RH; for reversible uptake of water from 0 to 90% RH: GVS
Experimental: Gravimetric Vapour Sorption (GVS)
Sorption isotherms were obtained using a SMS DVS Intrinsic moisture sorption analyser, controlled by SMS Analysis Suite software. […] The humidity was controlled by mixing streams of dry and wet nitrogen, with a total flow rate of 200 ml. min^−1. The relative humidity was measured by a calibrated Rotronic probe (dynamic range of 1.0-100% RH), located near the sample. The weight change, (mass relaxation) of the sample as a function of % RH was constantly monitored by the microbalance (accuracy ±0.005 mg). Typically 5-20 mg of sample was placed in a tared mesh stainless steel basket under ambient conditions. The sample was loaded and unloaded at 40% RH and 25° C. (typical room conditions). A moisture sorption isotherm was performed as outlined below (2 scans giving 1 complete cycle). The standard isotherm was performed at 25° C. at 10% RH intervals over a 0.5-90% RH range.
Method Parameters for SMS DVS Intrinsic Experiments:
The sample was recovered after completion of the isotherm and re-analysed by XRPD.
Hiden Isochema Moisture Sorption Analyser (IGAsorp)
Sorption isotherms were obtained using a Hiden Isochema Moisture Sorption Analyser (IGAsorp) controlled by IGAsorp Systems Software V6.50.48. […] The humidity was controlled by mixing streams of dry and wet nitrogen, with a total flow rate of 250 ml. min^−1. The instrument was verified for relative humidity content by measuring three calibrated Rotronic salt solutions (10-50-88%). The weight change of the sample as a function of % RH was monitored by microbalance (accuracy ±0.005 mg). A defined amount of sample was placed in a tared mesh stainless steel basket under ambient conditions. A full experimental cycle consisted of two scans (sorption and desorption) at a constant temperature (25° C.) and 10% RH intervals over a 10-90% RH range (90 minutes for each humidity level).
11.254 mg of sample was placed in a tarred mesh stainless steel basket under ambient conditions. A full experimental cycle consisted of two scans (sorption and desorption) at a constant temperature (25° C.) and 10% RH intervals over a 40-90% range (180 minutes for each humidity level). The mass increase of approximately 0.09 mg (−0.8%) and the facile uptake and loss relative to humidity level indicates a non-hygroscopic sample that dampens with surface moisture only.

[2] = Storage in a humidity chamber at 25° C. (75%, 94% or 97% RH); assay type: physicochemical; details: for observation on storage: 25° C./97% RH, time not stated
Experimental: However, a large proportion of the peaks corresponding to compound (I) appear as broadened multiplets, probably due to the presence of the sulfonic acid group, making successful assignment non-trivial. A significant quantity of residual TBME was also visible, though this is believed to be unbound solvent rather than a solvate. XRPD analysis confirmed the material to be crystalline. […] Deliquescence of a sample of the product was observed after storage in a humidity chamber at 25° C. and 94% RH for 2 hours. […]

Storage at 40° C./75% RH = assay type: physicochemical; details: for 40° C./75% RH, appearance / 40° C./75% RH, XRPD: 7 d; for 40° C./75% RH, observation or form change: storage time not stated
Experimental: A new XRPD pattern corresponding to the HBr salt was obtained upon storage of HBr Pattern 1 (Form J) at 40° C./75% relative humidity.
The sample was dried in a vacuum oven at 40° C./3 mbar for 18 h to yield the L-malate (Form R) as a white solid. NMR analysis of the sample of Form R formed during the storage of Form Q at 40° C./75% RH confirmed it to be a mono-malate salt.

[3] = 24 h
Experimental: Thermodynamic Aqueous Solubility
The suspension was equilibrated at 25° C. for 24 hours then the pH was measured. The suspension was then filtered through a glass fibre C filter into a 96 well plate. The filtrate was then diluted by a factor of 101. Quantitation was by HPLC with reference to a standard solution of approximately 0.1 mg. ml^−1 in DMSO. Different volumes of the standard, diluted and undiluted sample solutions were injected.
The suspension was equilibrated at 25° C. for 24 hours. The suspension was then filtered through a filter into an HPLC vial. The filtrate was then diluted by an appropriate factor. Quantification was executed by HPLC with reference to a standard solution of 0.5 mg in 1 mL acetonitrile/water (1:1). Different volumes of the standard, diluted and undiluted sample solutions were injected.
The pH of the solution post solubility was pH 5.

cyclin dependent kinases = details: cited from earlier work
[4] = system: range of different cell lines; details: cited from earlier work
[5] = Polymorph interconversion of L-tartrate Forms D and E (slurry conversion); details: slurry: 1:1 Form D:Form E, 45° C., 48 hours, ethyl acetate, IPA, IMS or acetonitrile
Experimental: Form E of the L-Tartrate salt of compound (I) was also prepared by slurry conversion from four different solvents (ethyl acetate, IPA, IMS or acetonitrile). A 1:1 mixture of Form by weight of D: Form E L-Tartrate salt (200 mg total) was heated at 45° C. over 48 hours in 2 ml of solvent prior to filtration and analysis.

[6] = Rehydration under ambient conditions followed by TGA; assay type: physicochemical; details: 8 mg sample in open TGA pan after heating to 100° C., ambient conditions (approximately 25° C. and 40% RH)
Experimental: A sample of product was heated to 100° C., held for 10 minutes, cooled to 30° C., held for 5 minutes and then re-heated to 250° C. […] To investigate whether the phosphate salt exists as a hydrate under ambient conditions that can be reversibly dehydrated at temperature in the presence of air, a series of TGA experiments were undertaken to clarify how quickly the material rehydrates under ambient conditions. A series of samples were taken to 100° C. then cooled to 25° C. under nitrogen using the TGA equipment. The samples were stored under ambient conditions (RT in air) for varying times and then the TGA experiment was re-run. As a comparison a heat/cool/heat experiment was undertaken under an inert atmosphere of nitrogen using the TGA; a sample was heated to 100° C., cooled to 25° C. and heated to 100° C. for a second time.
Within 30 minutes an 8 mg sample of product in an open TGA pan had fully rehydrated.

- uptake of water between 60 and 90% RH ([1]; GVS at 25° C.): 0.5 % by weight
- weight loss between 10 and 0% RH ([1]; GVS at 25° C.): 0.5%
Compound: CC[C@H](Nc1nc(NCc2cnc(C)cc2C)c2ncn(C(C)C)c2n1)[C@@H](C)O [Form C]
- hygroscopicity [1]: low hygroscopicity; also recorded: not hygroscopic

- hygroscopicity ([1]; listed as Mesylate Pattern 1): hygroscopic
- observation on storage [2]: deliquescence
- 40° C./75% RH, observation (Storage at 40° C./75% RH; 15 h): 15 h - Deliquesced
- 40° C./75% RH, observation (Storage at 40° C./75% RH; 15 h, listed as Mesylate Pattern 1): deliquescence
- 40° C./75% RH, appearance (Storage at 40° C./75% RH): 7 d - No change
- 40° C./75% RH, observation or form change (Storage at 40° C./75% RH; listed as mesylate salt): deliquescence
- AQ Solubility [3]: 137 mg/mL
- Aqueous solubility [3]: ~140 mg/mL
Compound: CC[C@H](Nc1nc(NCc2cnc(C)cc2C)c2ncn(C(C)C)c2n1)[C@@H](C)O [Form L]

- 40° C./75% RH, observation (Storage at 40° C./75% RH; 30 min): 30 min - Deliquescence
- AQ Solubility [3]: 75 mg/mL
Compound: CC[C@H](Nc1nc(NCc2cnc(C)cc2C)c2ncn(C(C)C)c2n1)[C@@H](C)O [Form H]

- hygroscopicity ([1]; listed as L-malate Pattern 1): hygroscopic
- 40° C./75% RH, observation (Storage at 40° C./75% RH; 15 h): 15 h - Deliquescence
- 40° C./75% RH, observation (Storage at 40° C./75% RH; 15 h, listed as L-malate Pattern 1): deliquescence
- 40° C./75% RH, observation (Storage at 40° C./75% RH; 72 h): crystallisation had occurred
- 40° C./75% RH, observation (Storage at 40° C./75% RH; 72 h, listed as L-malate Pattern 1): crystallisation of a new solid form
- 40° C./75% RH, appearance (Storage at 40° C./75% RH): White solid
- 40° C./75% RH, observation (Storage at 40° C./75% RH; inside 2 h): deliquescence
- AQ Solubility [3]: 92 mg/mL
Compound: CC[C@H](Nc1nc(NCc2cnc(C)cc2C)c2ncn(C(C)C)c2n1)[C@@H](C)O [Form Q]

- hygroscopicity [1]: highly hygroscopic above 75% RH
- appearance after storage ([2]; 25° C. and 75% RH for 70 hours): slightly tacky
- appearance after storage ([2]; 25° C. and 94% RH for 2 hours): Deliquescence
Compound: CC[C@H](Nc1nc(NCc2cnc(C)cc2C)c2ncn(C(C)C)c2n1)[C@@H](C)O [Form G]
- XRPD after storage ([2]; 25° C. and 75% RH for 70 hours): consistent with that of the original product, but with a slightly larger amorphous halo

- hygroscopicity ([1]; listed as Maleate Pattern 1): hygroscopic above 75% RH
- hygroscopicity ([1]; listed as maleate salt): hygroscopic above 40° C./70% RH
- observation on storage [2]: deliquescence
- 40° C./75% RH, XRPD (Storage at 40° C./75% RH): consistent with Maleate
- 40° C./75% RH, appearance (Storage at 40° C./75% RH): Sticky solid
- 40° C./75% RH, observation or form change (Storage at 40° C./75% RH; listed as Maleate Pattern 1): sticky solid
- AQ Solubility [3]: 73 mg/mL
Compound: CC[C@H](Nc1nc(NCc2cnc(C)cc2C)c2ncn(C(C)C)c2n1)[C@@H](C)O [Form M]

Compound: CC[C@H](Nc1nc(NCc2cnc(C)cc2C)c2ncn(C(C)C)c2n1)[C@@H](C)O [compound (I)]
- CDK inhibitory activity (cyclin dependent kinases): potent
- potency in cellular toxicity studies [4]: surprisingly high potency

- hydrate formation at high RH (GVS) [1]: no hydrate is formed
- hygroscopicity [1]: hygroscopic only above 70% RH
- appearance after storage ([2]; 25° C. and 75% RH for 4 days): unchanged
- relative stability of the L-tartrate polymorphs [5]: metastable
Compound: CC[C@H](Nc1nc(NCc2cnc(C)cc2C)c2ncn(C(C)C)c2n1)[C@@H](C)O [Form D]
- XRPD after storage ([2]; 25° C. and 75% RH for 4 days): consistent with that of the original product
- XRPD after storage ([2]; 25° C. and 94% RH for 70 hours): some peaks corresponding to those in the pattern acquired for the original product, though a significant amorphous halo was also visible
- appearance after storage ([2]; 25° C. and 94% RH for 70 hours): slightly tacky, though it had not deliquesced

- hydrate formation at high RH (GVS) [1]: no hydrate is formed
- hygroscopicity [1]: hygroscopic above only 70% RH
- appearance after storage ([2]; 25° C. and 75% RH for 70 hours): unchanged
Compound: CC[C@H](Nc1nc(NCc2cnc(C)cc2C)c2ncn(C(C)C)c2n1)[C@@H](C)O [Form F]
- XRPD after storage ([2]; 25° C. and 75% RH for 70 hours): consistent with that of the original product
- XRPD after storage ([2]; 25° C. and 94% RH for 3 days): same pattern as obtained for the initial product, but with a significant amorphous halo
- appearance after storage ([2]; 25° C. and 94% RH for 3 days): slightly tacky, though it had not deliquesced

- 40° C./75% RH, observation (Storage at 40° C./75% RH; 15 h): deliquescence and 15 h - Deliquescence
- 40° C./75% RH, XRPD (Storage at 40° C./75% RH): conversion to a new
- AQ Solubility [3]: > 30 mg/mL
Compound: CC[C@H](Nc1nc(NCc2cnc(C)cc2C)c2ncn(C(C)C)c2n1)[C@@H](C)O [Form J]
- 40° C./75% RH, appearance (Storage at 40° C./75% RH): crystallisation was observed; also recorded: Sticky solid
- 40° C./75% RH, observation or form change (Storage at 40° C./75% RH): conversion to a new Pattern—HBr Pattern 2 (Form K)

- hygroscopicity [1]: non-hygroscopic
- mass increase (GVS) [1]: −0.8%
- mass increase (GVS) ([1]; 11.254 mg sample): approximately 0.09 mg
- XRPD of sample post GVS ([1]; GVS at 25° C.): no change
Compound: CC[C@H](Nc1nc(NCc2cnc(C)cc2C)c2ncn(C(C)C)c2n1)[C@@H](C)O [Form A]

- hygroscopicity [1]: Non-hygroscopic, reversible uptake of
- reversible uptake of water from 0 to 90% RH [1]: <0.4 wt % from 0 to 90% RH
- reversible uptake of water from 0 to 90% RH ([1]; listed as Fumarate Pattern 1): less than 0.4 wt %
- hygroscopicity ([1]; listed as Fumarate Pattern 1): non-hygroscopic
- 40° C./75% RH, appearance (Storage at 40° C./75% RH): No visual change
- AQ Solubility [3]: 54 mg/mL
- Aqueous solubility [3]: approximately 50 mg. ml^−1
Compound: CC[C@H](Nc1nc(NCc2cnc(C)cc2C)c2ncn(C(C)C)c2n1)[C@@H](C)O [Form P]

- hygroscopicity [1]: only slightly hygroscopic
- Aqueous solubility [3]: 43.9 mg/mL
- aqueous solubility [3]: 43.905 mg/mL (≈ 110 mM)
Compound: CC[C@H](Nc1nc(NCc2cnc(C)cc2C)c2ncn(C(C)C)c2n1)[C@@H](C)O [Form E]

Compound: CC[C@H](Nc1nc(NCc2cnc(C)cc2C)c2ncn(C(C)C)c2n1)[C@@H](C)O [Form R]
- hygroscopicity [1]: less hygroscopic than the benzensulfonate and citrate salts
- reversible uptake of water from 0 to 90% RH [1]: Reversible uptake of ~2.5 wt % H2O from 0 to 90% RH

- hygroscopicity [1]: not to be hygroscopic
- uptake of water above 80% RH ([1]; GVS at 25° C.): ~1.5 weight %
- water lost upon taking to 0% RH ([1]; GVS at 25° C.): 0.5 weight %
- uptake of water above 80% RH ([1]; GVS at 40° C.): ~2 weight %
- water lost upon taking to 0% RH ([1]; GVS at 40° C.): ~2.6 weight %
- appearance after storage ([2]; 25° C. and 94% RH for 88 hours): no deliquescence was observed
- time to full rehydration [6]: ≤ 30 min
Compound: CC[C@H](Nc1nc(NCc2cnc(C)cc2C)c2ncn(C(C)C)c2n1)[C@@H](C)O [Form B]
- XRPD of sample post GVS ([1]; GVS at 25° C.): matched those acquired from product crystallised from ethanol
- XRPD of sample post GVS ([1]; GVS at 40° C.): matched those acquired from product crystallised from ethanol
- XRPD after storage ([2]; 25° C. and 94% RH for 88 hours): matched those acquired for the phosphate salt crystallised from ethanol

- 40° C./75% RH, XRPD (Storage at 40° C./75% RH): conversion to HCl
- 40° C./75% RH, appearance (Storage at 40° C./75% RH): Sticky solid
- AQ Solubility [3]: > 79 mg/mL
Compound: CC[C@H](Nc1nc(NCc2cnc(C)cc2C)c2ncn(C(C)C)c2n1)[C@@H](C)O [Form I]
- 40° C./75% RH, observation or form change (Storage at 40° C./75% RH): unstable; also recorded: conversion to HCl Pattern 1 (Form H)
